Data published in patent US6413960B1, “Substituted pyrazolyl benzenesulfonamides for the treatment of asthma” (G.D. Searle & Co., priority 1993, dated 2002).
pIC50: −log10 of the molar value. Like-named read-outs stand apart in the source and are kept apart here.

Experiments:
Human COX I = molecular target: T1, Human COX I (Homo sapiens, UniProt P23219); assay: Assay for COX I activity in vitro (PGE2 ELISA, recombinant enzyme); assay type: biochemical
T1 construct: A 2.0 kb fragment containing the coding region of either human or murine COX-I or human or murine COX-II; made in house; host or cells: SF9 insect cells (baculovirus, transfer vector pVL1393)

Human COX II = molecular target: T2, Human COX II (Homo sapiens, UniProt P35354); assay: Assay for COX II activity in vitro (PGE2 ELISA, recombinant enzyme); assay type: biochemical; settings: read-out: Human COX II ID50
T2 construct: A 2.0 kb fragment containing the coding region of either human or murine COX-I or human or murine COX-II; made in house; host or cells: SF9 insect cells (baculovirus, transfer vector pVL1393)
T2 sequence (P35354 18-604): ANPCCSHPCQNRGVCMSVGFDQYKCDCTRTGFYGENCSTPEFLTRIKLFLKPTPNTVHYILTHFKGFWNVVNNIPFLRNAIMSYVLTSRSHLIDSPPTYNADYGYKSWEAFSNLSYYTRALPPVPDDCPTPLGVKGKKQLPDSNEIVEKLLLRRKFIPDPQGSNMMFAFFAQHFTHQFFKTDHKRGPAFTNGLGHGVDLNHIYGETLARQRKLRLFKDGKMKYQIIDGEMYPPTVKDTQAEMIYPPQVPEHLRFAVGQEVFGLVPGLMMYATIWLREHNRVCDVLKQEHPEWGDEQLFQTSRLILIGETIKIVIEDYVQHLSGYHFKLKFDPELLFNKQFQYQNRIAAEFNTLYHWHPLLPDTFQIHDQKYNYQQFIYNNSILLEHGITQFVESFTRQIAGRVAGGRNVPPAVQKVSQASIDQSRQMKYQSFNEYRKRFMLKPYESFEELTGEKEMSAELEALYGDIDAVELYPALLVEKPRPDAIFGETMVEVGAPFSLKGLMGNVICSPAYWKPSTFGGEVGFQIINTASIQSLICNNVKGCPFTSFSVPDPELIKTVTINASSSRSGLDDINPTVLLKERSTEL
Protocol: The COX II inhibition activity of the compounds of this invention illustrated in the Examples was determined by the following methods.

[1] = system: Male Sprague-Dawley rats (carrageenan foot edema); settings: for RAT PAW EDEMA % Inhibition (* Assay performed at 30 mg/kg body weight): 30 mg/kg body weight (values marked *)
Protocol: Rat Carrageenan Foot Pad Edema Test
Male Sprague-Dawley rats were selected in each group so that the average body weight was as close as possible. Rats were fasted with free access to water for over sixteen hours prior to the test. […] One hour later a subplantar injection of 0.1 mL of 1% solution of carrageenan/sterile 0.9% saline was administered and the volume of the injected foot was measured with a displacement plethysmometer connected to a pressure transducer with a digital indicator. Three hours after the injection of the carrageenan, the volume of the foot was again measured.

[2] = system: Male Sprague-Dawley rats (carrageenan hyperalgesic foot withdrawal); settings: rat
Protocol: Rat Carrageenan-induced Analgesia Test
Male Sprague-Dawley rats were treated as previously described for the carrageenan Foot Pad Edema test. Three hours after the injection of the carrageenan, the rats were placed in a special plexiglass container with a transparent floor having a high intensity lamp as a radiant heat source, positionable under the floor. After an initial twenty minute period, thermal stimulation was begun on either the injected foot or on the contralateral uninjected foot. A photoelectric cell turned off the lamp and timer when light was interrupted by paw withdrawal. The time until the rat withdraws its foot was then measured. The withdrawal latency in seconds was determined for the control and drug-treated groups, and percent inhibition of the hyperalgesic foot withdrawal determined.

[3] = oral, foot volume 3 h after carrageenan
[4] = oral, 10 mg/kg body weight, foot volume 3 h after carrageenan
[5] = oral, 30 mg/kg body weight, inhibition of hyperalgesic foot withdrawal

T1 sequence (P23219 24-599): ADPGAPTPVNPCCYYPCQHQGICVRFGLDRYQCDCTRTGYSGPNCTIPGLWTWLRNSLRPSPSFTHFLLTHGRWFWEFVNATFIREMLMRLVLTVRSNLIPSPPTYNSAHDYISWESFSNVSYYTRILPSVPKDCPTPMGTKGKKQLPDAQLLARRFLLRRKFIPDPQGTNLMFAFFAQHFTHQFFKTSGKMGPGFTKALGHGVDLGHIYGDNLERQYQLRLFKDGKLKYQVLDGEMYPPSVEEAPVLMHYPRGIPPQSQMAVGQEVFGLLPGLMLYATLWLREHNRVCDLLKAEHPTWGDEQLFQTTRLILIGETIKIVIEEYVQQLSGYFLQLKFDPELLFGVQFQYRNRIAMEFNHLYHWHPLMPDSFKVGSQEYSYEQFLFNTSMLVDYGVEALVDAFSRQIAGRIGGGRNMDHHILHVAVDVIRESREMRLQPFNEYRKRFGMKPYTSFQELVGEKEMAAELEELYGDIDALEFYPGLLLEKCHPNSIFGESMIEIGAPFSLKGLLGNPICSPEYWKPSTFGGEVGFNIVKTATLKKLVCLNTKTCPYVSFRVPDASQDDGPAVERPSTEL

| SMILES | pIC50 (Human COX I; read-out: Human COX I ID50) | melting point | pIC50 (Human COX II) | also measured |
| --- | --- | --- | --- | --- |
| NS(=O)(=O)c1ccc(-n2nc(C(F)F)cc2-c2ccc3c(c2)OCO3)cc1 [Example 82, 4-[5-(1,3-Benzodioxol-5-yl)-3-(difluoromethyl)-1H-pyrazol-1-yl]benzenesulfonamide] | – | – | – | RAT PAW EDEMA % Inhibition (* Assay performed at 30 mg/kg body weight) [1, 3]: 22* % |
| NS(=O)(=O)c1ccc(-n2nc(C(F)(F)F)c(Cl)c2-c2ccc(Cl)cc2)cc1 [Example 199, 4-[5-(4-Chlorophenyl)-3-(trifluoromethyl)-4-chloro-1H-pyrazol-1-yl]benzenesulfonamide] | – | – | – | RAT PAW EDEMA % Inhibition @ 10 mg/kg body weight [1, 4]: 35% |
| NS(=O)(=O)c1ccc(-n2nc(C(F)F)cc2-c2ccc(Cl)cc2)cc1 [Example 58, 4-[5-(4-Chlorophenyl)-3-(difluoromethyl)-1H-pyrazol-1-yl]benzenesulfonamide] | – | – | – | RAT PAW EDEMA % Inhibition @ 10 mg/kg body weight [1, 4]: 36%; ANALGESIA % Inhibition @ 30 mg/kg body weight [2, 5]: 65% |
| COc1ccc(-c2cc(C(F)F)nn2-c2ccc(S(N)(=O)=O)cc2)cc1F [Example 59, 4-[5-(3-Fluoro-4-methoxyphenyl)-3-(difluoromethyl)-1H-pyrazol-1-yl]benzenesulfonamide] | – | – | – | RAT PAW EDEMA % Inhibition @ 10 mg/kg body weight ([1]; in vivo): 25%; ANALGESIA % Inhibition @ 30 mg/kg body weight ([2]; in vivo): 41% |
| COc1ccc(-c2cc(C(F)F)nn2-c2ccc(S(N)(=O)=O)cc2)cc1 [Example 60, 4-[3-Difluoromethyl-5-(4-methoxyphenyl)-1-H-pyrazol-1-yl]benzenesulfonamide] | – | – | – | RAT PAW EDEMA % Inhibition @ 10 mg/kg body weight [1, 4]: 49%; ANALGESIA % Inhibition @ 30 mg/kg body weight [2, 5]: 39% |
| CC(C)Cc1nn(-c2ccc(S(N)(=O)=O)cc2)c(-c2ccccc2)c1Cl [Example 205, 4-(4-Chloro-3-isobutyl-5-phenyl-1H-pyrazol-1-yl)benzenesulfonamide] | – | – | – | pIC50 (Human COX I; recombinant human COX I, arachidonic acid 10 μM, PGE2 ELISA, read-out: Human COX I ID50): 5.68; pIC50 (Human COX II; recombinant human COX II, arachidonic acid 10 μM, PGE2 ELISA): > 7.00 |
| NS(=O)(=O)c1ccc(-n2nc(C(=O)Nc3cccc(Cl)c3)cc2-c2ccc(F)cc2)cc1 [Example 98, N-(3-Chlorophenyl)-[1-(4-aminosulfonylphenyl)-5-(4-fluorophenyl)-1H-pyrazol-3-yl]carboxamide] | – | – | – | RAT PAW EDEMA % Inhibition (* Assay performed at 30 mg/kg body weight) [1, 3]: 2* % |
| NS(=O)(=O)c1ccc(-n2nc(C(F)(F)F)cc2-c2ccc(Cl)cc2)cc1 [Example 1, 4-[5-(4-Chlorophenyl)-3-(trifluoromethyl)-1H-pyrazol-1-yl]benzenesulfonamide] | – | – | – | RAT PAW EDEMA % Inhibition @ 10 mg/kg body weight ([1]; in vivo): 44%; ANALGESIA % Inhibition @ 30 mg/kg body weight ([2]; in vivo): 94% |
| C=CCc1cc(-c2cc(C(F)(F)F)nn2-c2ccc(S(N)(=O)=O)cc2)ccc1OC [Example 6, 4-[5-(3-(3-Propenyl)-4-methoxyphenyl)-3-(trifluoromethyl)-1H-pyrazol-1-yl]benzenesulfonamide] | – | – | – | pIC50 (Human COX I): 4.10 |
| N#Cc1cc(-c2ccc(F)cc2)n(-c2ccc(S(N)(=O)=O)cc2)n1 [Example 117] | – | – | – | RAT PAW EDEMA % Inhibition @ 10 mg/kg body weight [1, 4]: 32% |
| NS(=O)(=O)c1ccc(-n2nc(CO)cc2-c2ccc(Cl)cc2)cc1 [Example 171, 4-[5-(4-Chlorophenyl)-3-hydroxymethyl-1H-pyrazol-1-yl]benzenesulfonamide] | – | – | – | RAT PAW EDEMA % Inhibition @ 10 mg/kg body weight [1, 4]: 14%; ANALGESIA % Inhibition @ 30 mg/kg body weight [2, 5]: 37% |

More lines, main results first:

| pIC50 (Human COX I; read-out: Human COX I ID50) | melting point | pIC50 (Human COX II) | SMILES | also measured |
| --- | --- | --- | --- | --- |
| 4.04 | 135 to 136 °C | > 7.00 | CCc1c(C(F)(F)F)nn(-c2ccc(S(N)(=O)=O)cc2)c1-c1ccc(OC)c(C)c1 [Example 202, 4-[4-Ethyl-5-(3-methyl-4-methoxyphenyl)-3-(trifluoromethyl)-1H-pyrazol-1-yl]benzenesulfonamide] | – |
| 5.39 | 288 to 290 °C | 6.22 | NS(=O)(=O)c1ccc(-n2nc(C(F)(F)F)c3c2-c2ccsc2CC3)cc1 [Example 196, 4-[4,5-Dihydro-3-(trifluoromethyl)-1-H-thieno[3,2-g]indazol-1-yl]benzenesulfonamide] | – |
| 4.18 | – | > 7.00 | COC(=O)c1cc(-c2cc(F)c(OC)c(F)c2)n(-c2ccc(S(N)(=O)=O)cc2)n1 [Example 84, Methyl 1-(4-aminosulfonylphenyl)-5-(3,5-difluoro-4-methoxyphenyl)-1-H-pyrazole-3-carboxylate] | – |
| – | 168 to 171 °C (dec.) | – | NS(=O)(=O)c1ccc(-n2ncc(Cl)c2-c2ccc(Cl)cc2)cc1 [Example 197, 4-[5-(4-Chlorophenyl)-4-chloro-1H-pyrazol-1-yl]benzenesulfonamide] | RAT PAW EDEMA % Inhibition (* Assay performed at 30 mg/kg body weight) [1, 3]: 45* % |
| 4.90 | 190 to 193 °C | 5.44 | COc1ccc(-c2cc(C(Cl)Cl)nn2-c2ccc(S(N)(=O)=O)cc2)cc1F [Example 130, 4-[3-(Dichloromethyl)-5-(3-fluoro-4-methoxyphenyl)-1H-pyrazol-1-yl]benzenesulfonamide] | – |
| > 7.00 | – | 6.22 | Cc1c(-c2cc(C(F)(F)F)nn2-c2ccc(S(N)(=O)=O)cc2)ccc2c1OCO2 [Example 138, 4-[5-(4-methyl-1,3-benzodioxol-5-yl)-3-(trifluoromethyl)-1H-pyrazol-1-yl]benzenesulfonamide] | – |
| 5.66 | 145 to 146 °C | > 7.00 | Cc1c(C(F)(F)F)nn(-c2ccc(S(N)(=O)=O)cc2)c1-c1ccccc1 [Example 201, 4-[4-Methyl-5-phenyl-3-(trifluoromethyl)-1H-pyrazol-1-yl]benzenesulfonamide] | – |
| 4.70 | 215 to 218 °C | – | Cc1ccc2c(c1)CCc1c(C(F)(F)F)nn(-c3ccc(S(N)(=O)=O)cc3)c1-2 [Example 188, 4-[4,5-Dihydro-7-methyl-3-(trifluoromethyl)-1H-benz[g]indazol-1-yl]benzenesulfonamide] | – |
| 4.87 | 130 to 133 °C | > 7.00 | NS(=O)(=O)c1ccc(-n2nc(C(F)(F)Cl)cc2-c2ccc(Cl)cc2)cc1 [Example 129, 4-[5-(4-Chlorophenyl)-3-(chloro-difluoromethyl)-1H-pyrazol-1-yl]benzenesulfonamide] | RAT PAW EDEMA % Inhibition (* Assay performed at 30 mg/kg body weight) [1, 3]: 47* % |
